Laboratory results from ChEMBL document CHEMBL1130256, “1-[1-2-Benzo[b]thiopheneyl)cyclohexyl]piperidine hydrochloride (BTCP) yields two active primary metabolites in vitro: synthesis, identification from rat liver microsome extracts, and affinity for the neuronal dopamine transporter” (J Med Chem, 1997).

Assays:
[1] = Amount of metabolites in the microsomal medium after 90 min incubation of BTCP (500 uM); assay type: ADME, Microsome; conditions: microsomes, 1.5 h
[2] = target: Sodium-dependent dopamine transporter (Rattus norvegicus, UniProt P23977); assay: Inhibitory activity of compound against [3H]BTCP binding to neuronal dopamine transporter of rat striatal membrane
Sodium-dependent dopamine transporter, sequence (P23977 whole entry): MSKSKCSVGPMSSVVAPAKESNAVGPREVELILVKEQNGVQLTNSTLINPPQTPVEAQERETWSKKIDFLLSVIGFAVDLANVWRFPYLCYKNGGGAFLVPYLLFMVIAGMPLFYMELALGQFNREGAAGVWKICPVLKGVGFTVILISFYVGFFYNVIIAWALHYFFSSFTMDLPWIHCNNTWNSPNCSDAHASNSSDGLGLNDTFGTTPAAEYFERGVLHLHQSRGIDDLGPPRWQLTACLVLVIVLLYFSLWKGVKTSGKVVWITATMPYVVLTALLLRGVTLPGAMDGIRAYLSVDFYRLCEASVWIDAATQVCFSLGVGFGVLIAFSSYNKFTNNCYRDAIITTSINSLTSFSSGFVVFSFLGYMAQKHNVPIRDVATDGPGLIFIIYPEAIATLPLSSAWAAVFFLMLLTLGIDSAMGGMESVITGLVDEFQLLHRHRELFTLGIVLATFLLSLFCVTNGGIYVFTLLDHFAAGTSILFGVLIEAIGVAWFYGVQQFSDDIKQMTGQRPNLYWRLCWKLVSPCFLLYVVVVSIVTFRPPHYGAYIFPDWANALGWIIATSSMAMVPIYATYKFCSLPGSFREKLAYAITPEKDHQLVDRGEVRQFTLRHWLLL

OC1CCCN(C2(c3cc4ccccc4s3)CCCCC2)C1 (stereo not given)
Amount [1]: 147 pmol
IC50 [2]: 1.75 nM

O[C@@H]1CCC[C@@](c2cc3ccccc3s2)(N2CCCCC2)C1
Amount [1]: 4 pM

OC1(c2cc3ccccc3s2)CCCCC1
Amount [1]: 141 pmol

OC1CCN(C2(c3cc4ccccc4s3)CCCCC2)CC1
Amount [1]: 615 pmol
